Laboratory results published in US20140329863A1 (priority 2011, published 2014).

Legend:
[1] = in vitro; conditions: rat, microsomes, pH 7.4
[2] = in vitro; conditions: plasma
[3] = in vitro; conditions: rat, plasma, pH 7.4
[4] = target: T1, CYP2C9 (Homo sapiens, UniProt P11712); test: Cytochrome P450 phenotyping in human liver microsomes, CYP2C9 (sulfaphenazole); format: in vitro ADME; conditions: HLM, 5 μM sulfaphenazole
T1 construct: tissue BD Biosciences; host or cells: pooled human liver microsomes
T1 sequence (P11712 whole entry): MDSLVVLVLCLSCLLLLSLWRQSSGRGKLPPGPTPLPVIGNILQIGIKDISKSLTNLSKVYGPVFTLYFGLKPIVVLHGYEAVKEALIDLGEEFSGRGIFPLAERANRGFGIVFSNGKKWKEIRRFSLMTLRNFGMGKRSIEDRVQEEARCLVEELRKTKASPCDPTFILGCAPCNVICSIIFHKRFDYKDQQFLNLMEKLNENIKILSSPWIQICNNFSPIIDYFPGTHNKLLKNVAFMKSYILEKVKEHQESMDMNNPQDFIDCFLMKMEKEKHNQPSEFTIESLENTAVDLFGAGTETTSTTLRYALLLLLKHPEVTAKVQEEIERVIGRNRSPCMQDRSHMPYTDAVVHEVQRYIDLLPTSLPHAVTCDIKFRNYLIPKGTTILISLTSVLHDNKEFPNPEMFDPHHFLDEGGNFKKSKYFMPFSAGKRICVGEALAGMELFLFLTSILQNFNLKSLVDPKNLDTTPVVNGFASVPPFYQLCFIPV
Description: (§1) % Disappearance=[(TC-NADPH TC+NADPH)/TC-NADPH]×100
(§2) for which TC is the test compound.

[5] = target: T2, CYP2D6 (Homo sapiens, UniProt P10635); test: Cytochrome P450 phenotyping in human liver microsomes, CYP2D6 (quinidine); format: in vitro ADME; conditions: HLM, 1 μM quinidine
T2 construct: tissue BD Biosciences; host or cells: pooled human liver microsomes
T2 sequence (P10635 whole entry): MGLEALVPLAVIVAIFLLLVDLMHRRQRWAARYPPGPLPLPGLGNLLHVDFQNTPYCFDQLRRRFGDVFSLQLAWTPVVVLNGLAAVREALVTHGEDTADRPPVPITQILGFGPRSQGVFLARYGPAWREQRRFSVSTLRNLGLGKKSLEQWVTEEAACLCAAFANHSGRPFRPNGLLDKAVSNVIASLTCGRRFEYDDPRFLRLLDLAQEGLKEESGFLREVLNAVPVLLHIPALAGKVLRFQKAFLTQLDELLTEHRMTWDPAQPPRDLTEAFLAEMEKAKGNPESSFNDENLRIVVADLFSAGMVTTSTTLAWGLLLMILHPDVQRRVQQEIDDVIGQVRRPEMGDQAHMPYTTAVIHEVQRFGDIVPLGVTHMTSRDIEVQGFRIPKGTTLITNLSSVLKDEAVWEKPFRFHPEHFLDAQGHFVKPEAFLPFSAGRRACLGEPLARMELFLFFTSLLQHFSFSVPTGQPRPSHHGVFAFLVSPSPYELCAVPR
Description: as §1, §2

[6] = in vitro; conditions: dog, plasma, pH 7.4

Question: With Cc1cccc(Nc2nc(-c3ccc(-c4ccccc4)cc3)cs2)n1 [IND24, (4-Biphenyl-4-yl-thiazol-2-yl)-(6-methyl-pyridin-2-yl)-amine] as the compound, how does the half-life at 1 μM [1] read?
Answer: Its half-life at 1 μM is over 1 h.

Question: With Cc1ccnc(Nc2nc(-c3ccc(-c4ccccn4)s3)cs2)c1 [IND81, (4-Methyl-pyridin-2-yl)-[4-(5-pyridin-2-yl-thiophen-2-yl)-thiazol-2-yl]-amine] as the compound, how does the fraction unbound at 4 h ([2]; CD-1, mouse, pH 7.4, free fraction in plasma) read?
Answer: The fraction unbound at 4 h was about 0.57.

Question: And the fraction unbound at 4 h ([2]; mouse, pH 7.4, free fraction in plasma)?
Answer: The fraction unbound at 4 h was 0.06 to 0.09.

Question: And the fraction unbound at 4 h ([2]; mouse, pH 7.4, plasma protein binding, 1 and 10 μM)?
Answer: Its fraction unbound at 4 h is 0.04 to 0.07.

Question: And the fraction unbound at 4 h ([3]; Sprague-Dawley)?
Answer: Its fraction unbound at 4 h is about 0.57.

Question: What about the fraction unbound at 4 h [3] of the same compound?
Answer: Its fraction unbound at 4 h is 0.04 to 0.07.

Question: And the “involvement of CYP2C9 in metabolism” value [4]?
Answer: The value was “unlikely to be involved”.

Question: What about the “involvement of CYP2D6 in metabolism” value [5] of the same compound?
Answer: The value was “most likely to be involved”.

Question: And the fraction unbound at 4 h ([6]; beagle)?
Answer: Its fraction unbound at 4 h is about 0.57.

Question: What about the fraction unbound at 4 h [6] of the same compound?
Answer: Its fraction unbound at 4 h is 0.04 to 0.07.
